The values that follow come from ChEMBL document CHEMBL3046636, “Synthesis and anti-juvenile hormone activity of ethyl 4-(2-aryloxyhexyloxy)benzoates” (2006).

The source made the active and inactive calls. No cut-off for these calls is given here.

The test system of assay [1] is Bombyx mori. The assay is described as follows: Induction of precocious metamorphosis in 24 hr old third-instar larvae of Bombyx mori assessed as precocious metamorphosis at 40 ug/larva topically by antijuvenile hormone activity assay. It is filed as functional.
For assay [2], the system named is Bombyx mori. The assay is described as follows: Induction of precocious metamorphosis in 24 hr old third-instar larvae of Bombyx mori assessed as precocious metamorphosis at 200 ppm dietary administration by antijuvenile hormone activity assay. It is filed as functional.
Assay [3] relates to Bombyx mori. The assay is described as follows: Induction of precocious metamorphosis in 24 hr old third-instar larvae of Bombyx mori assessed as precocious metamorphosis at 50 ppm dietary administration by antijuvenile hormone activity assay. It counts as functional.
For assay [4], the system named is Bombyx mori. The assay can be described thus: Induction of precocious metamorphosis in 24 hr old third-instar larvae of Bombyx mori assessed as precocious metamorphosis at 1 ug/larva topically by antijuvenile hormone activity assay. It is filed as functional.
The subject of assay [5] is Bombyx mori. The assay can be described thus: Induction of precocious metamorphosis in newly molted fourth-instar larvae of Bombyx mori assessed as precocious metamorphosis measured after topical treatment. It is filed as functional, organism-based.
For assay [6], the system named is Bombyx mori. The assay is described as follows: Induction of precocious metamorphosis in 24 hr old third-instar larvae of Bombyx mori assessed as precocious metamorphosis at 10 ug/larva topically by antijuvenile hormone activity assay. It is filed as functional.

With `CCCCC(COc1ccc(C(=O)OCC)cc1)Oc1ccccc1` (stereo not given), the Activity came to 70% in the assay on Bombyx mori [1]; 75% with Bombyx mori [2]; 25% in the assay with Bombyx mori [3]; 32% in the assay with Bombyx mori [4]; 66% in the assay on Bombyx mori [6]. Moreover, in the assay with Bombyx mori [5], the outcome was inactive.
As for `CCCCC(COc1ccc(C(=O)O)cc1)Oc1ccccc1` (stereo not given), the Activity in the assay with Bombyx mori [2] and with Bombyx mori [3] was 0% in each case.
Consider `CCCCC(COc1ccc(C(=O)OCC)cc1)Oc1ccncc1` (stereo not given), for which the Activity in the assay with Bombyx mori [4] and with Bombyx mori [6] was 0% each time. Moreover, the result with Bombyx mori [5] was inactive.
Consider `CCCCC(COc1ccc(C(=O)OCC)cc1)Oc1ccc(C)cc1` (stereo not given), for which the Activity was found to be 58% in the assay with Bombyx mori [1], 5% in the assay on Bombyx mori [4] and 45% in the assay on Bombyx mori [6]. Moreover, the outcome with Bombyx mori [5] was inactive.
For the molecule `CCCCC(COc1ccc(C(=O)OCC)cc1)Oc1ccccc1Cl` (stereo not given), the Activity with Bombyx mori [4] and in the assay on Bombyx mori [6] was 0% throughout. Also, in the assay with Bombyx mori [5], the outcome was inactive.
On to `CCCCC(COc1ccc(C(=O)OCC)cc1)Oc1cccc(Cl)c1` (stereo not given), for which the results for the Activity in the assay with Bombyx mori [1], in the assay on Bombyx mori [4] and in the assay with Bombyx mori [6] were 75%, 25% and 45%, respectively. Moreover, in the assay on Bombyx mori [5], the result was inactive.
Regarding `CCCCC(COc1ccc(C(=O)OCC)cc1)Oc1cccc(C)c1` (stereo not given), the Activity in the assay on Bombyx mori [1] turned out to be 55%; in the assay on Bombyx mori [4] it was 0%; with Bombyx mori [6], 5%. Also, the outcome in the assay with Bombyx mori [5] was inactive.
With `CCCCC(COc1ccc(C(=O)OCC)cc1)Oc1ccc(C)nc1` (stereo not given), the Activity amounted to 75% with Bombyx mori [1], 20% in the assay with Bombyx mori [4] and 20% in the assay on Bombyx mori [6]. The result with Bombyx mori [5] was inactive.
Turning to `CCCCC(COc1ccc(C(=O)OCC)cc1)Oc1ccccc1C` (stereo not given), the Activity turned out to be 0% in the assay on Bombyx mori [4] and 10% with Bombyx mori [6]. Moreover, in the assay on Bombyx mori [5], the outcome was inactive.
Regarding `CCCCC(COc1ccc(C(=O)OCC)cc1)Oc1cccnc1` (stereo not given), the Activity with Bombyx mori [1] turned out to be 57%; in the assay on Bombyx mori [4], 10%; in the assay on Bombyx mori [6], 47%. Further, the outcome with Bombyx mori [5] was inactive.
As to `CCCCC(COc1ccc(C(=O)OCC)cc1)Oc1ccc(Cl)cc1` (stereo not given), the Activity came out at 0% with Bombyx mori [4] and 30% in the assay with Bombyx mori [6]. For the same molecule, the outcome in the assay with Bombyx mori [5] was inactive.
